Five compounds from patent publication US20250270445A1, “COMPOUNDS AND USES THEREOF IN FIELD OF OPTOELECTRONICS” (Zhejiang Brilliant Optoelectronic Technology Co.,Ltd., priority 2022, published 2025) can be followed below.

Common to all, as to assay type: physicochemical
Data set [1] is described as follows: Solubility of compounds in toluene. As to the method: The solubility of the compounds in the toluene were determined as follows: • 1. 1000 mg of toluene solution was placed in the transparent glass sample bottle. • 2. A certain mass of the compound was added into the toluene, and oscillated until completely dissolved. • 3. After the compound was completely dissolved, a certain mass of the compound was further added into the toluene, and oscillated. • 4. The above steps were repeated until the compound wasn't dissolved any more. • 5. The total mass of the compound added was recorded and the solubility was obtained by calculation.

The nature of data set [2]: Absorption and emission spectrum in spin-coated film. The settings on record: spin-coated film. On the procedure: The absorption and emission spectrums of the compounds in the film were determined as follows: • 1. The compound with a certain concentration in the toluene was prepared. • 2. The prepared toluene solution was dropped onto a clean glass substrate. • 3. Spin-coating, and then heating at the 80° C. for 1 min. • 4. The absorption spectrum of the film was measured by using an ultraviolet-visible spectrophotometer (Puxi T9s) to obtain the absorption peak wavelength. • 5. The emission spectrum of the film was measured by using a fluorescent spectroscope (Hitachi, F-4700 FL Spectrophotometer) to obtain the emission peak wavelength.

Data set [3] is described as follows: UV stability of compounds in toluene (absorbance decay to 80%). The note with it: 1×10^−5 mol/L in toluene, UV LEDs 365 nm & 255 nm, time to 80% absorbance, normalized to comparative compound 2 as 100%. On the procedure:
The compound was dissolved in the toluene with a concentration of 1×10^−5 mol/L. 3 mL solution was added to the cuvette with a lid and the lid was screwed on tightly, then the cuvette was placed in the ultraviolet-visible spectrophotometer to test the absorption spectrum, the absorbance of the maximum absorption peak was recorded as the initial value. The cuvette was placed at a distance of 12 cm from the UV LEDs (365 nm & 255 nm), irradiated for a period and tested its absorption spectrum, then continued to be irradiated after the test, and repeated until the absorbance decayed to 80% of its initial value, the time was recorded as t80.

Data set [4] is described as follows: Absorption spectrum, emission spectrum and extinction coefficient in toluene solution. The note with it: for Molar extinction coefficient of the toluene solution: maximum absorption peak. As to the method: The extinction coefficients of the compounds and their absorption and emission spectrums in the solution were determined as follows: • 1. The compound with a certain amount of substance concentration in the toluene was prepared in a volumetric flask. • 2. The absorption spectrum of the solution was measured by using an ultraviolet-visible spectrophotometer (Puxi T9s) to obtain the absorption peak wavelength. • 3. The absorbance of the maximum absorption peak divided by the amount of substance concentration is the molar extinction coefficient of the compound. • 4. The emission spectrum of the solution was measured by using a fluorescent spectroscope (Hitachi, F-4700 FL Spectrophotometer) to obtain the emission peak wavelength.

The structures appear in SMILES notation.

With `CCCCCCCCc1ccc(-c2cc(C(C)C)ccc2N(c2cc(F)c(F)c(F)c2)c2cc(N(c3cc(F)c(F)c(F)c3)c3ccc(C(C)C)cc3-c3ccc(CCCCCCCC)cc3)c3ccc4c(N(c5cc(F)c(F)c(F)c5)c5ccc(C(C)C)cc5-c5ccc(CCCCCCCC)cc5)cc(N(c5cc(F)c(F)c(F)c5)c5ccc(C(C)C)cc5-c5ccc(CCCCCCCC)cc5)c5ccc2c3c54)cc1` [compound 13], the “Solubilities(/100 g, toluene)” value in data set [1] is reported as >15 g/100 g toluene. In addition, in data set [2], the “Absorption peak of the film” value amounted to 473 nm and the “Emission peak of the film” value stood at 490 nm. In addition, the “Times t80” value in data set [3] amounted to 410%. In data set [4], the “Absorption peak of the toluene solution” value is recorded as 473 nm, the “Emission peak of the toluene solution” value was determined as 494 nm and the “Molar extinction coefficient of the toluene solution” value (from here on “Molar extinction coefficient”) is 5.9 × 10^4 L · mo 1^−1.
Turning to `CCCCCCCCc1ccc(N(c2ccc(C(C)C)cc2-c2cc(F)c(F)c(F)c2)c2cc(N(c3ccc(CCCCCCCC)cc3)c3ccc(C(C)C)cc3-c3cc(F)c(F)c(F)c3)c3ccc4c(N(c5ccc(CCCCCCCC)cc5)c5ccc(C(C)C)cc5-c5cc(F)c(F)c(F)c5)cc(N(c5ccc(CCCCCCCC)cc5)c5ccc(C(C)C)cc5-c5cc(F)c(F)c(F)c5)c5ccc2c3c54)cc1` [compound 20], in data set [1], the “Solubilities(/100 g, toluene)” value was >10 g/100 g toluene. Moreover, in data set [2], the “Absorption peak of the film” value came out at 486 nm and the “Emission peak of the film” value turned out to be 504 nm. Further, in data set [3], the “Times t80” value is given as 528%. In addition, in data set [4], the “Absorption peak of the toluene solution” value worked out at 485 nm, the “Emission peak of the toluene solution” value stood at 504 nm and the “Molar extinction coefficient” value is 5.5 × 10^4 L · mo 1^−1.
Turning to `Cc1cccc(C)c1N(c1ccc(C(C)(C)C)cc1)c1cc(N(c2ccc(C(C)(C)C)cc2)c2c(C)cccc2C)c2ccc3c(N(c4ccc(C(C)(C)C)cc4)c4c(C)cccc4C)cc(N(c4ccc(C(C)(C)C)cc4)c4c(C)cccc4C)c4ccc1c2c43` [compound 3], the “Solubilities(/100 g, toluene)” value in data set [1] is on record as 4.2 g/100 g toluene. Besides, in data set [2], the “Absorption peak of the film” value was 479 nm and the “Emission peak of the film” value is 497 nm. For the same compound, in data set [3], the “Times t80” value is reported as 212%. Also, in data set [4], the “Absorption peak of the toluene solution” value was 477 nm, the “Emission peak of the toluene solution” value was 495 nm and the “Molar extinction coefficient” value is reported as 3.0 × 10^4 L · mo 1^−1.
On to `CC1CCC(C(C)C)C(Oc2ccc(-c3cc(C(C)C)ccc3N(c3cc(F)c(F)c(F)c3)c3cc(N(c4cc(F)c(F)c(F)c4)c4ccc(C(C)C)cc4-c4ccc(OC5CC(C)CCC5C(C)C)cc4)c4ccc5c(N(c6cc(F)c(F)c(F)c6)c6ccc(C(C)C)cc6-c6ccc(OC7CC(C)CCC7C(C)C)cc6)cc(N(c6cc(F)c(F)c(F)c6)c6ccc(C(C)C)cc6-c6ccc(OC7CC(C)CCC7C(C)C)cc6)c6ccc3c4c65)cc2)C1` (centres unmarked) [compound 15], for which the “Solubilities(/100 g, toluene)” value in data set [1] is >10 g/100 g toluene. In data set [2], the “Absorption peak of the film” value was determined as 473 nm and the “Emission peak of the film” value stood at 491 nm. Also, the “Times t80” value in data set [3] is 440%. Further, in data set [4], the “Absorption peak of the toluene solution” value stood at 476 nm, the “Emission peak of the toluene solution” value turned out to be 493 nm and the “Molar extinction coefficient” value is recorded as 6.8 × 10^4 L · mo 1^−1.
As to `Cc1cccc(C)c1N(c1ccccc1)c1cc(N(c2ccccc2)c2c(C)cccc2C)c2ccc3c(N(c4ccccc4)c4c(C)cccc4C)cc(N(c4ccccc4)c4c(C)cccc4C)c4ccc1c2c43` [compound 1], the “Solubilities(/100 g, toluene)” value in data set [1] is 1.5 g/100 g toluene. In data set [2], the “Absorption peak of the film” value was determined as 477 nm and the “Emission peak of the film” value is on record as 497 nm. In addition, the “Times t80” value in data set [3] is listed as 190%. Besides, in data set [4], the “Absorption peak of the toluene solution” value was determined as 475 nm, the “Emission peak of the toluene solution” value is 490 nm and the “Molar extinction coefficient” value is on record as 6.0 × 10^4 L · mo 1^−1.
